This is an account of results in patent US10315996B2, “ROR gamma (RORγ) modulators” (LEAD PHARMA HOLDING B.V., priority 2015, dated 2019).

Each structure is given as a SMILES string.

In the assay the target is T1, RORγ (Homo sapiens, UniProt P51449).
T1 construct: expressed in transfected cells; host or cells: 293FT cells (Invitrogen), expression vector pFN26A (Promega)
T1 sequence (P51449 269-508 limits assumed): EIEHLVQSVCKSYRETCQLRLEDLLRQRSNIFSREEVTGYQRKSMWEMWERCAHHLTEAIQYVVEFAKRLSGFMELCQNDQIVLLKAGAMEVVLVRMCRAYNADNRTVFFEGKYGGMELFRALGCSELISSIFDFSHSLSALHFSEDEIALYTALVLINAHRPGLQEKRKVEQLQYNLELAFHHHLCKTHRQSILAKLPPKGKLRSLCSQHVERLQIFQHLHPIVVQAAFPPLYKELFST
Nature of the assay: RORγ GAL4 reporter gene assay. The assay is classed as cell-based. To be noted: inhibition of RORγ activity, GAL4-RORγ-LBD luciferase reporter in 293FT cells, overnight incubation; read-out: mean pIC50 (converted). In a few lines:
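293FT cells were transiently co-transfected with GAL4-DBD–RORγ-LBD (or GAL4-VP16 control) and a 9×UAS luc2P reporter, then plated at 60,000 cells/well. Compound was added at final 0.2% DMSO for 16-24 h at 37 °C, and inhibition was measured by firefly luciferase luminescence.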
(A reporter such as luciferase makes a cellular process visible.)
As for `Cc1cccc(C)c1NC(=O)c1ccc(NC(=O)Cc2ccc(S(=O)(=O)CC3CC3)cc2)cc1` [Example 75, 4-[2-(4-cyclopropylmethanesulfonylphenyl)acetamido]-N-(2,6-dimethylphenyl) benzamide], the IC50 was not above 100 nM.
Then `CC(C)(C)N(C(=O)c1ccc(NC(=O)Cc2ccc(S(=O)(=O)CC3CC3)nc2)c(F)c1)c1ccccc1` [Example 159, N-tert-butyl-4-[2-(6-cyclopropylmethanesulfonylpyridin-3-yl)acetamido]-3-fluoro-N-phenylbenzamide], with not above 10 nM.
In the case of `CC(C)[C@@H](NC(=O)c1ccc(NC(=O)Cc2ccc(S(=O)(=O)CC3CC3)cc2)cc1)C(F)(F)F` [Example 69, 4-[2-(4-cyclopropylmethanesulfonylphenyl)acetamido]-N-[(2R)-1,1,1-trifluoro-3-methylbutan-2-yl]benzamide], the IC50 was not above 1000 nM.
Then `O=C(Cc1ccc(S(=O)(=O)NC2CC2)cc1)Nc1ccc(C(=O)N2CCCCC2c2ccccc2)cc1` (stereo not shown) [Example 66, 2-[4-(cyclopropylsulfamoyl)phenyl]-N-[4-(2-phenylpipendine-1-carbonyl)phenyl]acetamide], with not above 100 nM.
To `O=C(Cc1ccc(S(=O)(=O)CC2CC2)cc1)Nc1ccc(C(=O)NCc2ccccc2)cc1` [Example 13, N-benzyl-4-[2-(4-cyclopropylmethanesulfonylphenyl)acetamido]benzamide] belongs not above 1000 nM; to `Cc1cc(N(C)C(=O)c2ccc(NC(=O)Cc3ccc(S(=O)(=O)CC4CC4)cc3)cc2)no1` [Example 90, 4-[2-(4-cyclopropylmethanesulfonylphenyl)acetamido]-N-methyl-N-(5-methyl-1,2-oxazol-3-yl)benzamide], not above 10 nM.
Then `O=C(Cc1ccc(S(=O)(=O)CC2CC2)cc1)Nc1ccc(C(=O)N(c2ccccc2)c2ccc(Br)cc2)cc1` [Example 115, N-(4-bromophenyl)-4-[2-(4-cyclopropylmethanesulfonylphenyl)acetamido]-N-phenylbenzamide], with not above 100 nM.
As for `CCN(C(=O)c1ccc(NC(=O)Cc2ccc(S(=O)(=O)CC3CC3)cc2)nc1)c1ccccc1` [Example 51, 6-[2-(4-cyclopropylmethanesulfonylphenyl)acetamido]-N-ethyl-N-phenylpyridine-3-carboxamide], the IC50 was not above 100 nM.
To `CCN(C(=O)c1ccc(NC(=O)Cc2ccc(S(=O)(=O)CC3CC3)cc2)cc1OC)c1ccccc1` [Example 58, 4-[2-(4-cyclopropylmethanesulfonylphenyl)acetamido]-N-ethyl-2-methoxy-N-phenylbenzamide] belongs not above 100 nM.
To `CCN(C(=O)c1ccc(NC(=O)Cc2ccc(S(=O)(=O)CC3CC3)cc2)cc1)c1cc(C)no1` [Example 94, 4-[2-(4-cyclopropylmethanesulfonylphenyl)acetamido]-N-ethyl-N-(3-methyl-1,2-oxazol-5-yl)benzamide] belongs not above 10 nM; to `CN(Cc1ccco1)C(=O)c1ccc(NC(=O)Cc2ccc(S(=O)(=O)CC3CC3)cc2)cc1` [Example 59, 4-[2-(4-cyclopropylmethanesulfonylphenyl)acetamido]-N-(furan-2-ylmethyl)-N-methylbenzamide], not above 100 nM.
To `CCN(C(=O)c1ccc(NC(=O)Cc2ccc(S(=O)(=O)CC3CC3)cc2)cc1)c1nnc(C)s1` [Example 96, 4-[2-(4-cyclopropylmethanesulfonylphenyl)acetamido]-N-ethyl-N-(5-methyl-1,3,4-thiadiazol-2-yl)benzamide] belongs not above 100 nM.
Consider `CCN(C(=O)c1ccc(NC(=O)Cc2ccc(S(=O)(=O)NC3CC3)cc2)cc1)c1ccccc1` [Example 43, 4-{2-[4-(cyclopropylsulfamoyl)phenyl]acetamido}-N-ethyl-N-phenylbenzamide], for which the IC50 is not above 10 nM.
To `CCN(C(=O)c1ccc(NC(=O)Cc2ccc(S(=O)(=O)CC3CC3)cc2)cc1F)c1cccc(C)c1C` [Example 119, 4-[2-(4-cyclopropylmethanesulfonylphenyl)acetamido]-N-(2,3-dimethylphenyl)-N-ethyl-2-fluorobenzamide] belongs not above 10 nM.
Then `CCN(C(=O)c1ccc(NC(=O)Cc2ccc(S(=O)(=O)CC3CC3)cc2)cc1Cl)c1ccccc1Cl` [Example 128, 2-chloro-N-(2-chlorophenyl)-4-[2-(4-cyclopropylmethanesulfonylphenyl)acetamido]-N-ethylbenzamide], with not above 10 nM.
Then `CN(C(=O)c1ccc(NC(=O)Cc2ccc(S(=O)(=O)CC3CC3)cc2)cc1)c1ccccc1` [Example 3, 4-[2-(4-cyclopropylmethanesulfonylphenyl)acetamido]-N-methyl-N-phenylbenzamide], with not above 10 nM; and `CCN(C(=O)c1ccc(NC(=O)Cc2ccc(S(=O)(=O)CC3CC3)cc2)cc1)c1cccnc1` [Example 52, 4-[2-(4-cyclopropylmethanesulfonylphenyl)acetamido]-N-ethyl-N-(pyridin-3-yl) benzamide], with not above 100 nM.
Turning to `CCN(C(=O)c1ccc(NC(=O)Cc2ccc(S(=O)(=O)CC3CC3)cc2)cc1Cl)c1ccccc1` [Example 100, 2-chloro-4-[2-(4-cyclopropylmethanesulfonylphenyl)acetamido]-N-ethyl-N-phenylbenzamide], the IC50 was not above 100 nM.
To `CC(C)(CO)N(C(=O)c1ccc(NC(=O)Cc2ccc(S(=O)(=O)CC3CC3)cc2)cc1)c1ccccc1` [Example 138, 4-[2-(4-cyclopropylmethanesulfonylphenyl)acetamido]-N-(1-hydroxy-2-methylpropan-2-yl)-N-phenylbenzamide] belongs not above 100 nM; to `C=CCN(CC=C)C(=O)c1ccc(NC(=O)Cc2ccc(S(=O)(=O)CC3CC3)cc2)cc1` [Example 61, 4-[2-(4-cyclopropylmethanesulfonylphenyl)acetamido]-N,N-bis(prop-2-en-1-yl)benzamide], not above 100 nM; to `N#CC(NC(=O)c1ccc(NC(=O)Cc2ccc(S(=O)(=O)CC3CC3)cc2)cc1)c1cccs1` (stereo not shown) [Example 72, N-[cyano(thiophen-2-yl)methyl]-4-[2-(4-cyclopropylmethanesulfonylphenyl)acetamido]benzamide], not above 1000 nM.
To `CC(N(C(=O)c1ccc(NC(=O)Cc2ccc(S(=O)(=O)CC3CC3)cc2)cc1)c1ccccc1)C(F)(F)F` (stereo not shown) [Example 146, 4-[2-(4-cyclopropylmethanesulfonylphenyl)acetamido]-N-phenyl-N-(1,1,1-trifluoropropan-2-yl)benzamide] belongs not above 10 nM; to `CCN(C(=O)c1ccc(NC(=O)Cc2ccc(S(=O)(=O)CC3CC3)cc2)cc1)c1nccs1` [Example 84, 4-[2-(4-cyclopropylmethanesulfonylphenyl)acetamido]-N-ethyl-N-(1,3-thiazol-2-yl)benzamide], not above 100 nM.
With `CCN(C(=O)c1ccc(NC(=O)Cc2ccc(S(=O)(=O)CC3CC3)cc2)c(C)c1)c1ccccc1` [Example 105, 4-[2-(4-cyclopropylmethanesulfonylphenyl)acetamido]-N-ethyl-3-methyl-N-phenylbenzamide], the IC50 is not above 100 nM.
Regarding `CCCN(C)C(=O)c1ccc(NC(=O)Cc2ccc(S(=O)(=O)CC3CC3)cc2)cc1` [Example 7, 4-[2-(4-cyclopropylmethanesulfonylphenyl)acetamido]-N-methyl-N-propylbenzamide], the IC50 was not above 1000 nM.
